From patent US20240140991A1, “ANTIBIOTIC NATURAL PRODUCT ANALOGUES” (THE QUEEN'S UNIVERSITY OF BELFAST, priority 2021, published 2024)
Converted amounts (≈) assume the structure as drawn. Positions of bridges follow the written chain, without caps; N, C: chain ends. Non-standard residues stand in square brackets, D forms with d. Residues, ends and D or L forms follow the SMILES beside them. ξ: configuration not given here. *: point of attachment. Octanoyl(7-Me) = CC(C)CCCCCC(=O)*; Hexanoyl(4ξ-Me) = CCC(C)CCC(=O)*; dOrn = NCCC[C@@H](N)C(=O)O; Orn = NCCC[C@H](N)C(=O)O

Columns and labels:
[1] = tested on: Acinetobacter baumannii ATCC 17961; type: cell-based; settings: A. baumannii ATCC 17961
In short: (§1)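 Broth microdilution in MHB per CLSI; inoculum 2×10^5 CFU mL^−1 from log-phase TSB cultures at OD600 0.5. Plates incubated 16 hours at 37° C with shaking at 220 rpm. MIC is the lowest concentration preventing visible growth.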

[2] = tested on: Escherichia coli ATCC 25922; type: cell-based; settings: E. coli ATCC 25922
In short: as §1

[3] = tested on: Pseudomonas aeruginosa ATCC 27853; type: cell-based; settings: P. aeruginosa ATCC 27853
In short: as §1

[4] = tested on: Staphylococcus aureus USA300; type: cell-based; settings: S. aureus USA300 (Gram-positive)
In short: as §1

E. coli ATCC 25922 MCR-1 = type: cell-based, Escherichia coli; settings: E. coli ATCC 25922 MCR-1 (colistin resistant)
Description: (§2) Minimum inhibitory concentration (MIC) was determined by broth microdilution according to CLSI guidelines. Blood agar plates were inoculated with glycerol stocks of Escherichia coli ATCC 25922, E. coli ATCC 25922 MCR-1, E. coli MCR-1 (clinical isolate from Utrecht Medical Center, NL), E. coli EQAS MCR-2 (clinical isolate from Wageningen University and Research, NL), Kiebsielia pneumoniae ATCC 11228, K. pneumoniae ATCC 13883, K. pneumonia 2048 (clinical isolate from Vrije Universiteit Amsterdam Medical Center, NL), K. pneumonia JS-123 (clinical isolate from Utrecht Medical Center, NL), Acinetobacter baumannii ATCC 17961, A. baumannil ATCC 17978, A. baumannii 2018-006 (clinical isolate from Rijksinstituut voor Volksgezondheid en Milieu, NL), A. baumannii MDR (clinical isolate from Vrije Universiteit Amsterdam Medical Center, NL), Pseudomonas aeruginosa ATCC 27853, P. aeruginosa PAO1, P. aeruginosa NRZ-03961 (Reference strain from Das Nationale Referenzzentrum für gramnegative Krankenhauserreger, DE), P. aeruginosa M-120 (clinical isolate from Leiden University Medical Center, NL) and Staphylococcus aureus USA300 (clinical isolate from Texas Children's Hospitalm, USA). E. coli 25922 MCR1 was grown on LB agar supplemented with kanamycin. The inoculated agar plates were then incubated for 16 hours at 37° C. Individually grown colonies were subsequently used to inoculate 3 mL aliquots of TSB that were then incubated at 37° C. with shaking at 220 rpm. In parallel, the compounds to be assessed were serially diluted with Mueller-Hinton broth (MHB) in polypropylene 96-well plates (50 μL in each well). Once the OD600 of the bacterial suspensions reached 0.5, the bacteria were diluted with MHB (final concentration 2×10^5 CFU mL^−1) and added to the microplates containing the test compounds (50 μL to each well, final volume: 100 μL). The well-plates were sealed with an adhesive membrane and after 16 hours of incubation at 37° C. with shaking at 220 rpm the wells were visually inspected for bacterial growth. MIC values were defined as the lowest concentration of the compound that prevented visible growth of bacteria.
(§3) In the table above, “MCR” denotes that one of the MCR family of genes, which confers colistin resistance, is present in the bacterial strain. Thus, E. coli ATCC 25922 MCR-1, E. coli MCR-1 and E. coli EQAS MCR-2 are each colistin resistant. […] Therefore, laterocidamide may overcome some of the challenges faced due to antibiotic resistance.

E. coli EQAS MCR-2 = type: cell-based, Escherichia coli; settings: E. coli EQAS MCR-2 clinical isolate (colistin resistant)
Description: as §2, §3

E. coli MCR-1 = type: cell-based, Escherichia coli; settings: E. coli MCR-1 clinical isolate (colistin resistant)
Description: as §2, §3

K. pneumoniae 2048 = type: cell-based, Klebsiella pneumoniae; settings: K. pneumoniae 2048 clinical isolate
Description: as §2

K. pneumoniae ATCC 11228 = type: cell-based, Klebsiella pneumoniae; settings: K. pneumoniae ATCC 11228
Description: as §2

K. pneumoniae ATCC 13883 = type: cell-based, Klebsiella pneumoniae; settings: K. pneumoniae ATCC 13883
Description: as §2

K. pneumoniae JS-123 = type: cell-based, Klebsiella pneumoniae; settings: K. pneumoniae JS-123 clinical isolate
Description: as §2

A. baumannii 2018-006 = type: cell-based, Acinetobacter baumannii; settings: A. baumannii 2018-006 clinical isolate
Description: as §2

A. baumannii ATCC 17978 = type: cell-based, Acinetobacter baumannii; settings: A. baumannii ATCC 17978
Description: as §2

A. baumannii MDR = type: cell-based, Acinetobacter baumannii; settings: A. baumannii MDR clinical isolate
Description: as §2

P. aeruginosa M-120 = type: cell-based, Pseudomonas aeruginosa; settings: P. aeruginosa M-120 clinical isolate
Description: as §2

P. aeruginosa NRZ-03961 = type: cell-based, Pseudomonas aeruginosa; settings: P. aeruginosa NRZ-03961
Description: as §2

P. aeruginosa PAO1 = type: cell-based, Pseudomonas aeruginosa; settings: P. aeruginosa PAO1
Description: as §2

HepG2 cells = experiment: Cytotoxicity MTT assay; settings: HepG2, 128 μg/mL, 24 h
Description: In addition to a single vehicle control, compounds (diluted from DMSO stock) were added to each well to obtain in a final 128 μg/mL concentration (max. final DMSO concentration 0.5%) for all compounds except for oritavancin which was administered at 50 μM. Incubation was done for 24 h at 37° C., 7% CO2. After the incubation, MTT was added to each well at a final concentration of 0.40 mg/mL. The plates were then incubated for 2 h at 37° C., 7% CO2. Medium was carefully removed via suction, and purple formazan crystals were resuspended in 100 μL DMSO. Absorbance was read at 570 nm using a Clariostar plate reader. The data was then analysed with GraphPad Prism software. Technical triplicates for each condition were used, along with biological duplicates.

Compound | Minimum inhibitory concentration (MIC) [1] [µg/mL] | Minimum inhibitory concentration (MIC) [2] [µg/mL] | Minimum inhibitory concentration (MIC) [3] [µg/mL] | Minimum inhibitory concentration (MIC) [4] [µg/mL] | Minimum inhibitory concentration (MIC) (E. coli ATCC 25922 MCR-1) [µg/mL] | Minimum inhibitory concentration (MIC) (E. coli EQAS MCR-2) [µg/mL] | Minimum inhibitory concentration (MIC) (E. coli MCR-1) [µg/mL] | Minimum inhibitory concentration (MIC) (K. pneumoniae 2048) [µg/mL] | Minimum inhibitory concentration (MIC) (K. pneumoniae ATCC 11228) [µg/mL] | Minimum inhibitory concentration (MIC) (K. pneumoniae ATCC 13883) [µg/mL] | Minimum inhibitory concentration (MIC) (K. pneumoniae JS-123) [µg/mL] | Minimum inhibitory concentration (MIC) (A. baumannii 2018-006) [µg/mL] | Minimum inhibitory concentration (MIC) (A. baumannii ATCC 17978) [µg/mL] | Minimum inhibitory concentration (MIC) (A. baumannii MDR) [µg/mL] | Minimum inhibitory concentration (MIC) (P. aeruginosa M-120) [µg/mL] | Minimum inhibitory concentration (MIC) (P. aeruginosa NRZ-03961) [µg/mL] | Minimum inhibitory concentration (MIC) (P. aeruginosa PAO1) [µg/mL] | cytotoxicity / cell viability (HepG2 cells)
colistin [reference compound] | ≤0.5 | 0.25 to 0.5 | 1 | >64 | 2 to 4 | 2 to 4 | 2 to 4 | 2 | ≤0.5 | 1 | ≤0.5 | ≤0.5 | ≤0.5 | ≤0.5 | 1 | <0.5 | ≤0.5 | –
CCC(C)CCC(=O)N[C@H](CC(N)=O)C(=O)N[C@H](Cc1ccc(O)cc1)C(=O)N[C@H](Cc1c[nH]c2ccccc12)C(=O)N[C@H](CCCN)C(=O)N[C@@H](CCCN)C(=O)NCC(=O)N[C@H](CCCN)C(=O)N[C@@H](Cc1c[nH]c2ccccc12)C(=O)N[C@@H]1C(=O)N[C@@H]([C@@H](C)CC)C(=O)NCC(=O)N[C@@H](CO)C(=O)O[C@@H]1C (some centres unmarked) [Brevicidine, brevicidine, reference compound] ({Hexanoyl(4ξ-Me)}-[dN][dY][dW][dOrn][Orn]G[dOrn]WTIGS; ester 9-C) | – | – | – | – | – | – | – | – | – | – | – | – | – | – | – | – | – | completely non-toxic
CC[C@H](C)[C@@H]1NC(=O)[C@@H](NC(=O)[C@H](Cc2c[nH]c3ccccc23)NC(=O)[C@@H](CCCN)NC(=O)CNC(=O)[C@H](CCCN)NC(=O)[C@@H](CCCN)NC(=O)[C@@H](Cc2c[nH]c3ccccc23)NC(=O)[C@@H](Cc2ccc(O)cc2)NC(=O)[C@@H](CO)NC(=O)CCCCCC(C)C)[C@@H](C)OC(=O)CNC(=O)CNC(=O)[C@H](CC(N)=O)NC1=O [Laterocidine, laterocidine, reference compound] ({Octanoyl(7-Me)}-[dS][dY][dW][dOrn][Orn]G[dOrn]WTINGG; ester 9-C) | – | – | – | – | 2 (≈ 1.25 µM) | 1 (≈ 0.623 µM) | 0.5 (≈ 0.312 µM) | – | – | – | – | – | – | 1 (≈ 0.623 µM) | – | – | – | completely non-toxic
